This is an account of results in publication PMC12195707, “Evaluation of Antitumoral Activity in a 3D Cell Model of a Src Inhibitor Prodrug for Glioblastoma Treatment” (Pharmaceutics, 2025).

Data set [1] in a line: PAMPA assay, gastrointestinal (GI) membrane. Format: in vitro ADME. Particulars: four hours. The procedure: (§1) After being first dissolved in DMSO, the compounds were diluted 1:1 v/v using phosphate buffer (PBS 10 mM, pH 7.4). […] The gastrointestinal (GI) and blood–brain barrier (BBB) phospholipidic bilayers were mimicked by covering each well of the filter plate with either a 10%w/v CHCl3/dodecane brain polar lipid solution or a 1%w/v L-α-phosphatidylcholine solution (PC) in dodecane. After placing a DMSO/PBS 1:1v/v combination solution in the acceptor plate, the sandwich was gently shaken and incubated at room temperature for four hours. Samples were collected from the upper and bottom plates at the end time point, and the LC-UV/MS method was used for analysis. As previously reported, the apparent permeability (Papp cm/s × 10^−6) was quantified.
On the technique in general: The PAMPA barrier holds no transporters, so it reflects passive diffusion.

Data set [2] is described as follows: PAMPA assay, blood-brain barrier (BBB) membrane. Here is the method:
as §1

Another data set deals with orthotopic GBM model. More on the design: method as in PMID 28650650. Particulars: compared with SI306; cited from earlier work.

With `CC(C)NCC(O)COc1cccc2ccccc12` (centres unmarked) [Propranolol, propranolol, reference compound], in data set [1] (pH 7.4, room temperature, read-out: Apparent permeability Papp), the Papp at 4 h was 19.2 ± 0.37 ×10⁻⁶ cm/s. Moreover, the “Membrane retention MR” value turned out to be 8.89 ± 1.12% in data set [1] (room temperature) and 10.73 ± 1.33% in data set [2] (PAMPA, 4 h, pH 7.4). Moreover, the “Apparent permeability Papp” value in data set [2] (BBB PAMPA, room temperature, four hours) stood at 17.16 ± 0.31 cm/s × 10^−6.

As for `CN1CCN(CCOC(=O)N(c2cccc(Br)c2)c2nc(SCCN3CCOCC3)nc3c2cnn3CC(Cl)c2ccccc2)CC1` (centres unmarked) [SI306-PD1], the “Efficacy in orthotopic GBM model” value in the data set with orthotopic GBM model is given as “greater efficacy than SI306”.

Broadly, the Papp is a coefficient for how fast a substance crosses the barrier.
